Here are results for one substance from patent publication US20150305333A1, “USE OF GLUCOSAMINE AMIDES AS PLANT GROWTH AND YIELD ENHANCERS” (PIONEER HI-BRED INTERNATIONAL, INC., priority 2012, published 2015).

For this assay, the system named is corn seeds. As to the kind of experiment: Petri dish seed germination assay, corn. Type of assay: in vivo. As for the experimental part:
A series of Petri dish seed assays was conducted to evaluate the effects NPG on the seed germination rates of corn, soybean, and canola seeds subjected to cold stress, salt stress and non-stressed conditions (salt stress only for canola). Assays were performed with ten replications of ten seeds/plate (100 total seeds). NPG was applied to seeds at the specified concentrations prior to being placed in Petri plates. Seeds designated for Salt Stress Experiments 1 & 2 were placed in Petri dishes containing a 100 mM NaCl solution and incubated at 21° C.-22° C. in the dark. Cold stress Petri dishes were incubated at 15° C. in the dark. Untreated Controls were incubated at 21° C.-22° C. in the dark as were seeds utilized in the separately conducted non-stressed germination assays. Data was recorded as percent germination at designated times after plating. Statistical analyses were performed using one-way Anova and Kruskal-Wallis one-way analysis of variance on rank combined with Dunn's all pairwise multiple comparison procedure (α=0.05).

For the substance “Methyl 2-deoxy-2-N-(hexadece-9,10-cis-eneoyl)-β-D-glucopyranoside [NPG]”, the “Corn Seed Germination” value (Salt Stress (100 mM NaCl) Experiment 1, 10^−6M, 30 HAP) was 34a %; the “Corn Seed Germination” value (Salt Stress (100 mM NaCl) Experiment 1, 10^−6M, 40 HAP) came out at 83a %; the “Corn Seed Germination” value (Salt Stress (100 mM NaCl) Experiment 1, 10^−6M, 48 HAP) is 96a %; the “Corn Seed Germination” value (Salt Stress (100 mM NaCl) Experiment 1, 10^−7M, 30 HAP) amounted to 23a %; the “Corn Seed Germination” value (Salt Stress (100 mM NaCl) Experiment 1, 10^−7M, 40 HAP) is 68a %; the “Corn Seed Germination” value (Salt Stress (100 mM NaCl) Experiment 1, 10^−7M, 48 HAP) turned out to be 91a %.
